Measurements reported in patent US11174245B2, “Benzimidazole compounds and derivatives as EGFR inhibitors” (Boehringer Ingelheim International GmbH, priority 2018, dated 2021).
Like-named read-outs stand apart in the source and are kept apart here.

How the values were obtained:
[1] = biological target: EGFR (mutated) 695-1022, T790M, C797S, L858R (Homo sapiens (Human), UniProt P00533, C797S/L858R/T790M); test: Biochemical EGFR inhibition assay (TR-FRET, poly-GT substrate), EGFR T790M C797S L858R
Chain of EGFR (mutated) 695-1022, T790M, C797S, L858R (P00533 695-1022 T790M/C797S/L858R): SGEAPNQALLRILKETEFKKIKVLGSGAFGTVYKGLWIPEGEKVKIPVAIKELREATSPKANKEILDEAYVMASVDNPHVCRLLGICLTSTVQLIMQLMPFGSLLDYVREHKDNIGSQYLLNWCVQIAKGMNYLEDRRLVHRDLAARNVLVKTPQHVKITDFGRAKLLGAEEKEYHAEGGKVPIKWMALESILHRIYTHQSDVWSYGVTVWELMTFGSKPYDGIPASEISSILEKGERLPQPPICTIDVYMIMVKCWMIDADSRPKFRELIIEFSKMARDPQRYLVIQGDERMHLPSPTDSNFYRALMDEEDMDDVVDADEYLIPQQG
Method: (§1) Biochemical EGFR Inhibition Assays
(§2) Initially, the inhibitory effect of compounds according to the invention is measured in biochemical assays which measure the phosphorylation activity of EGFR enzyme forms on poly-GT substrate in the presence of different concentrations of ATP (5 μM and 100 μM final assay concentration).
(§3) The following enzyme forms of EGFR are representative examples that can be used in these assays at the given concentrations:
(§4) For the chosen highest assay concentration of 100 μM, 150 nL of compound solution is transferred from a 10 mM DMSO compound stock solution. A series of eleven fivefold dilutions per compound is transferred to the assay plate, compound dilutions are tested in duplicates. DMSO is added as backfill to a total volume of 150 nL. The assay runs on a fully automated robotic system.
(§5) These biochemical EGFR enzyme form compound dose-response assays quantify the kinase activity via phosphorylation of a tagged poly-GT substrate. The results of the assay are provided as IC50 values.

EGFR wt = EGFR wt (Homo sapiens (Human), UniProt P00533); test: Biochemical EGFR inhibition assay (TR-FRET, poly-GT substrate), EGFR wt
Chain of EGFR wt (P00533 25-1210): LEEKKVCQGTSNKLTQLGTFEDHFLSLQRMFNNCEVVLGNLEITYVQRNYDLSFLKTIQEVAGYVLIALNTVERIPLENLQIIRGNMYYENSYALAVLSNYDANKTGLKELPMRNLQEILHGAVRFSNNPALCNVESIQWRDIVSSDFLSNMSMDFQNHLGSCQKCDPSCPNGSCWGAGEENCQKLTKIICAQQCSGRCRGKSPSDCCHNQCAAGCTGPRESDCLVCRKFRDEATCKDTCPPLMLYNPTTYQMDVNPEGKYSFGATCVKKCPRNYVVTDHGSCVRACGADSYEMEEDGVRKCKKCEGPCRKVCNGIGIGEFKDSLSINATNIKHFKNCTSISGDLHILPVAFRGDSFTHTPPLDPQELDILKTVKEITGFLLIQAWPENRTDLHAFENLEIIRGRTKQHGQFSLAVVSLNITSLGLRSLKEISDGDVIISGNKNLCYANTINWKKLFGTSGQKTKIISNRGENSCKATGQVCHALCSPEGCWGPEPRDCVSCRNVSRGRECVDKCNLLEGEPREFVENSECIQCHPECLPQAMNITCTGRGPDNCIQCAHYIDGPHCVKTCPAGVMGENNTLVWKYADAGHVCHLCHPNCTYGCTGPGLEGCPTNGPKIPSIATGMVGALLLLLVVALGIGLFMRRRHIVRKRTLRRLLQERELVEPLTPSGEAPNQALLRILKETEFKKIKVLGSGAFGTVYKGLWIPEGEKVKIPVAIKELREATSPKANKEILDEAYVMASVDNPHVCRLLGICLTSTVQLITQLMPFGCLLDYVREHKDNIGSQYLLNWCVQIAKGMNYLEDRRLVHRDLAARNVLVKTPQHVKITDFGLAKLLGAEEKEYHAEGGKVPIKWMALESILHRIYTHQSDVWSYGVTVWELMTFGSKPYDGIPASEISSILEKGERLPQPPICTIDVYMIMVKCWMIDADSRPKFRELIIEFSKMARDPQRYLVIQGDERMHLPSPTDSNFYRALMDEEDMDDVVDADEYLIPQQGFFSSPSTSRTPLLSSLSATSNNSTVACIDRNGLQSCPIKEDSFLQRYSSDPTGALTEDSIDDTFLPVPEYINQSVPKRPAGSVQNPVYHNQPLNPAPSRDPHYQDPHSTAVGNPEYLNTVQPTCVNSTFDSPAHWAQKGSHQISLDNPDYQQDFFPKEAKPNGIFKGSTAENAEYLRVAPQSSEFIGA
Method: as §1, §2, §3, §4, §5

[2] = biological target: EGFR del19 T790M C797S protein in Ba/F3 cells (Homo sapiens, UniProt P00533, C797S/DEL746-750/T790M); test: pEGFR assay (AlphaScreen Surefire, EGFR Tyr1068 phosphorylation); type: cell-based
Chain of EGFR del19 T790M C797S protein in Ba/F3 cells (P00533 with tags, fused parts or gaps C797S/DEL746-750/T790M limits assumed): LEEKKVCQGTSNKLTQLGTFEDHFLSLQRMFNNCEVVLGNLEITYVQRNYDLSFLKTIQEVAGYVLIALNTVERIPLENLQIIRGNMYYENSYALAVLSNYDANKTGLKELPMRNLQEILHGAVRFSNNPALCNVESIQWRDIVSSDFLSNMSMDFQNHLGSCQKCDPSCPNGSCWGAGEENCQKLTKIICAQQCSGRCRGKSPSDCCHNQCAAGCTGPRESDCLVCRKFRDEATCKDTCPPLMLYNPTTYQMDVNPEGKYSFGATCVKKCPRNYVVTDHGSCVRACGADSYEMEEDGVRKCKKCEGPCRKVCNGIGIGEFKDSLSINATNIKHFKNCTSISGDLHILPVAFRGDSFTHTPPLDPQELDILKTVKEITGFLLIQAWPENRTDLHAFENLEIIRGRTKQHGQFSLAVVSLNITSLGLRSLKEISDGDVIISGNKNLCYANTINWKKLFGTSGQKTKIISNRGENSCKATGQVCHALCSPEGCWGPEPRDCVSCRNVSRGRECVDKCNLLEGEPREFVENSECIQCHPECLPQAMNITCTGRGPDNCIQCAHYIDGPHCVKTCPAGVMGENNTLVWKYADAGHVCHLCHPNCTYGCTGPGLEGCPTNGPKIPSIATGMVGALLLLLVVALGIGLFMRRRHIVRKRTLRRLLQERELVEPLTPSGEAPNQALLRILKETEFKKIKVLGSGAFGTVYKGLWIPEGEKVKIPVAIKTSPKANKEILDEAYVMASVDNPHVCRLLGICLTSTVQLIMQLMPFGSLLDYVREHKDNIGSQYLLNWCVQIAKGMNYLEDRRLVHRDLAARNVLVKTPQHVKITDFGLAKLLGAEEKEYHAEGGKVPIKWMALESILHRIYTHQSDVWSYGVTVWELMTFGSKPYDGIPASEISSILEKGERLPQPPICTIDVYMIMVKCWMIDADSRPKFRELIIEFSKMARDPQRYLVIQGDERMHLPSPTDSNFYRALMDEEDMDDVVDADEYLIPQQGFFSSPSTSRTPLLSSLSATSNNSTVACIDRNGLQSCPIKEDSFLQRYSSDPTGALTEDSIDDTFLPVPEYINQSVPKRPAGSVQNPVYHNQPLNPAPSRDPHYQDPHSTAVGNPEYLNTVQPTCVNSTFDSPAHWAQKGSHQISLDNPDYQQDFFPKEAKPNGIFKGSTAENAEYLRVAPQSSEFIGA
Method: Transduced cells were selected using puromycin. Following selection, IL-3 was withdrawn and IL-3 independent cells cultured. p-EGFR Tyr1068 was determined using the AlphaScreen Surefire pEGF Receptor (Tyr1068) Assay (PerkinElmer, TGRERS). […] Subsequently, 60.000 cells/well in 60 μL were added. Cells were incubated with compound for 4 h at 37° C. […] The mixture was incubated at room temperature with shaking (700 rpm) for 20 min. After centrifugation, 4 μL of the lysate were transferred to Proxiplates. […] Plates were shaken for 1 min (1400 rpm) and incubated for 2 h at room temperature in the dark.
The results of the assay are provided as IC50 values (see table 12).

[3] = read-out: LR_TM_CS (5 μM ATP) IC50, 5 μM ATP
[4] = read-out: wt (5 μM ATP) IC50, 5 μM ATP
[5] = read-out: LR_TM_CS (100 μM ATP) IC50, 100 μM ATP
[6] = read-out: wt (100 μM ATP) IC50, 100 μM ATP

Row | IC50 [2] [nM] | Compound | other results
1 | 45 | Cc1cc(C(=O)/N=c2\[nH]c3ccc(CN4CCOCC4)cc3n2CC(C)(C)O)cc(-c2cnn(C)c2)n1 [I-213] | IC50 [1, 3]: 54.1 nM; IC50 (EGFR wt; [4]): > 100 µM
2 | 2 | Cn1cc(-c2cc(C(=O)/N=c3\[nH]c4cc(CN5CCOCC5)ccc4n3[C@H]3CC[C@@H](O)CC3)cc(F)n2)cn1 [I-135] | IC50 [1, 3]: 0.8 nM; IC50 (EGFR wt; [4]): 0.225 µM
3 | 1 | COc1ccncc1-c1cc(C(=O)/N=c2\[nH]c3ccccc3n2CC(C)(C)O)ccn1 [I-018] | IC50 [1, 5]: 11.9 nM; IC50 (EGFR wt; [6]): 10 µM
4 | 23 | O=C(/N=c1\[nH]c2ccccc2n1[C@H]1CC[C@@H](O)CC1)c1ccnc(-c2cccc(F)c2)c1 [I-185] | IC50 [1, 3]: 35.6 nM; IC50 (EGFR wt; [4]): 3.24 µM
5 | 9 | CC(C)(O)Cn1/c(=N/C(=O)c2ccnc(-c3ccccc3)c2)[nH]c2ccccc21 [I-064] | IC50 [1, 3]: 13.1 nM; IC50 [1, 5]: 267 nM; IC50 (EGFR wt; [4]): > 4 µM; IC50 (EGFR wt; [6]): > 100 µM
6 | 5 | CC(=O)N1CCC(c2ccc3c(c2)[nH]/c(=N\C(=O)c2cc(C#N)nc(-c4cnn(C)c4)c2)n3[C@H]2CC[C@@H](O)CC2)CC1 [I-202] | IC50 [1, 3]: 0.9 nM; IC50 (EGFR wt; [4]): 0.173 µM
7 | 12 | O=C(/N=c1\[nH]c2ccccc2n1[C@H]1CC[C@@H](O)CC1)c1ccnc(-c2cccn3ncnc23)c1 [I-179] | IC50 [1, 3]: 33.8 nM; IC50 (EGFR wt; [4]): 3.6 µM
8 | 5 | COc1ccccc1-c1cc(C(=O)/N=c2\[nH]c3ccccc3n2[C@H]2COCC[C@@H]2O)ccn1 [I-155] | –
9 | 39 | O=C(/N=c1\[nH]c2ccccc2n1[C@H]1CC[C@@H](O)CC1)c1ccnc(-c2csc3ccccc23)c1 [I-96] | –
10 | 26 | Cc1cc2c(cc1N1CCN(C(C)C)CC1)[nH]/c(=N\C(=O)c1ccnc(-c3cnn(C)c3)c1)n2CC(C)(C)O [I-69] | –
11 | 54 | Cn1cc(-c2cc(C(=O)/N=c3\[nH]c4cc(N5CCOC(C)(C)C5)ccc4n3CC(C)(C)O)ccn2)cn1 [I-75] | –
12 | 2 | COc1ccccc1-c1cc(C(=O)/N=c2\[nH]c3cc(CN4CC(OC)C4)ccc3n2[C@H]2CC[C@@H](O)CC2)ccn1 [I-140] | –
13 | 12 | CC(C)(O)Cn1/c(=N/C(=O)c2ccnc(-c3cccc(O)c3)c2)[nH]c2ccccc21 [I-104] | –
14 | 11 | Cn1ncc2c(-c3cc(C(=O)/N=c4\[nH]c5ccccc5n4CC(C)(C)O)ccn3)cccc21 [I-88] | –
15 | 14 | Cn1cc(-c2cc(C(=O)/N=c3\[nH]c4cc(NCC5CCOCC5)ccc4n3CC(C)(C)O)ccn2)cn1 [I-68] | –
16 | 55 | CC(C)(O)Cn1/c(=N/C(=O)c2ccnc(-c3cnccc3Cl)c2)[nH]c2ccccc21 [I-027] | –
17 | 74 | Cn1cc(-c2cc(C(=O)/N=c3\[nH]c4cc(F)ccc4n3CC(C)(C)O)ccn2)cn1 [I-194] | –
18 | 9 | O=C(/N=c1\[nH]c2ccccc2n1[C@H]1CC[C@@H](O)CC1)c1ccnc(-c2coc3ccccc23)c1 [I-174] | –
19 | 3 | COc1ccccc1-c1cc(C(=O)/N=c2\[nH]c3cc(CN4CCOCC4)ccc3n2[C@H]2CC[C@@H](O)CC2)ccn1 [I-142] | –
20 | 33 | Cn1cc(-c2cc(C(=O)/N=c3\[nH]c4ccccc4n3[C@H]3COCC[C@@H]3O)ccn2)cn1 [I-190] | –
21 | 27 | Cn1cc(-c2cc(C(=O)/N=c3\[nH]c4cc(CN5CCCCC5)ccc4n3CC(C)(C)O)ccn2)cn1 [I-057] | –
22 | 2 | COc1ccccc1-c1cc(C(=O)/N=c2\[nH]c3cc(C4CCN(C(C)=O)CC4)ccc3n2[C@H]2CC[C@@H](O)CC2)ccn1 [I-121] | –
23 | 14 | Cn1cc(-c2cc(C(=O)/N=c3\[nH]c4cc(NCCN5CCCC5)ccc4n3CC(C)(C)O)ccn2)cn1 [I-83] | –
24 | 42 | CN(C)c1ccc2c(c1)[nH]/c(=N\C(=O)c1ccnc(-c3cccnc3)c1)n2CC(C)(C)O [I-79] | –
25 | 12 | Cn1cc(-c2cc(C(=O)/N=c3\[nH]c4cc(CCC(C)(C)O)ccc4n3CC(C)(C)O)ccn2)cn1 [I-178] | –
26 | 11 | O=C(/N=c1\[nH]c2ccccc2n1[C@H]1CC[C@@H](O)CC1)c1ccnc(-n2ccc3ccccc32)c1 [I-125] | –
